Our source for the IC50 values is PubChem BioAssay AID540269 (Sanford-Burnham Center for Chemical Genomics, 2011).

In this test the target is glucose-6-phosphate dehydrogenase-6-phosphogluconolactonase (Plasmodium falciparum 3D7). The test can be described thus: PfG6PD enzyme inhibitors, kinetic NADPH readout, dose response, orthogonal assay, biochemical, kinetic NADPH detection (AID 540269). As to conditions: purified PfG6PD-6PGL.

The structures appear in SMILES notation. Activity calls are given as the source filed them. How the calls were made is not given here. Where only a bound is given, the exact number is not on record here.

As a reminder, the IC50 is the concentration that inhibits the measured activity by half. For `Cc1cc(C)c(S(=O)(=O)Nc2cc(SCC(=O)O)c(O)c3ccccc23)cc1C`, the IC50 was 41.4 µM.

Turning to `Cc1cc(C)c2c(=N)c3ccccc3n(CCCCCCCCn3c4ccccc4c(=N)c4c(C)cc(C)nc43)c2n1`, the IC50 was 50.3 µM.

Turning to `CCN=c1scc(C)n1/N=C/c1ccc(O)c(O)c1O`, the IC50 is 39.2 µM.

`COc1ccc(NC(=S)N(CCC(C)C)C2CCN(C(C)C)CC2)cc1Cl`: the IC50 is 56.6 µM.

For `CCOC(=O)Cc1cc(=O)n2[nH]c(C(C)(C)C)cc2n1`, the IC50 is > 80 µM (inactive).

As to `COC(=O)[C@H](C)NC(=O)c1cc2c(cn1)[nH]c1ccccc12`, the IC50 was 51 µM.

As to `Cc1cc(C)c(S(=O)(=O)/N=C2/C=C(SCC(=O)O)C(=O)c3ccccc32)cc1C`, the IC50 is > 80 µM (inactive).

For the molecule `CC(C)c1nnc(NC(=O)c2sc3ccccc3c2Cl)s1`, the IC50 is 35.5 µM.

Turning to `CCc1ccc(S(=O)(=O)Nc2cc(SCC(=O)O)c(O)c3ccccc23)cc1`, the IC50 is 44.6 µM.

In the case of `CN(C)c1ccc(Cc2cc3c(O)ccc(O)c3cc(Cc3ccc(N(C)C)cc3)c2=O)cc1`, the IC50 is 54.7 µM.

As to `CN=c1nc(-c2ccccc2)n(-c2ccccc2)s1`, the IC50 is 20.6 µM.

As to `CCN1CCCC1CNC(=O)c1ccc2c(c1)NC(=O)/C(=C\c1ccccc1F)S2` (configuration not stated), the IC50 is 8.64 µM.

Turning to `COc1cc(N=Cc2c(CO)cnc(C)c2O)cc(OC)c1OC`, the IC50 is 30.5 µM.

As for `Cc1cc(C)c[n+](C2=C([O-])c3ccccc3C(=O)/C2=N\S(=O)(=O)c2cccs2)c1`, the IC50 is > 80 µM (inactive).

Consider `CN1CC[C@@]2(C)c3cc(O)ccc3N(C)[C@@H]12`, for which the IC50 is 46.7 µM.

Regarding `CN(C)c1nc(=NCc2cccs2)ss1`, the IC50 was > 80 µM (inactive).

With `CN(C)C=Nc1ccc2nc3c(cc2c1)[nH]c1ccccc13`, the IC50 was > 80 µM (inactive).

Consider `COc1cc(N2C(=O)C=CC2=O)ccc1N1C(=O)C=CC1=O`, for which the IC50 is 19.5 µM.

Consider `C=CCSc1nnc(NC(=O)c2ccc(Cl)nc2)s1`, for which the IC50 is > 80 µM (inactive).

As to `Cc1ccc2nc(-c3ccc(NC(=S)NC4CC(C)(C)NC(C)(C)C4)cc3)sc2c1`, the IC50 is > 80 µM (inactive).

Take `C[C@H](NC(N)=O)C(=O)Nc1ccc(N2CCOCC2)c(S(=O)(=O)Nc2ccc(Cl)cc2)c1`: the IC50 was > 80 µM (inactive).

In the case of `O=C(CNC(=O)c1ccco1)OCC(=O)c1ccc([N+](=O)[O-])cc1`, the IC50 is 50.9 µM.

As for `CC(NC1=CC(=O)c2cccnc2C1=O)C(O)c1ccccc1` (configuration not stated), the IC50 is 45.1 µM.

In the case of `O=C1C=CC(=O)N1c1ccc(N2CCCCC2)cc1`, the IC50 was 37 µM.

Turning to `Cc1cc(C)c2c(=O)n(CC(=O)Nc3cccc(Cl)c3C)sc2n1`, the concentration for half-maximal inhibition (IC50) was 49.6 µM.

For the molecule `COC1=C(Br)C(=O)c2nc(C)ccc2C1=O`, the IC50 is > 80 µM (inactive).

In the case of `O=C1NC(=O)C(=Cc2ccc(-c3ccccc3[N+](=O)[O-])o2)C(=O)N1`, the IC50 is 69.9 µM.

Regarding `c1nc(SSc2ncnc3nc[nH]c23)c2[nH]cnc2n1`, the IC50 was 27 µM.

For `CC(C)(C)NC(=O)COc1ccc(CNc2ccc3[nH]c(=O)[nH]c3c2)cc1`, the IC50 was 10.4 µM.

Take `COc1cc(N)c2ncsc2c1`: the IC50 was > 80 µM (inactive).

For `CCOC(=O)c1c(C)n(-c2ccc(C)cc2)c2c(C(C(C)=O)C(=O)O)c(Br)c(O)c(O)c12` (configuration not stated), the IC50 is 57.4 µM.

On to `Cc1ccsc1/C=N/NC(=O)c1cccc(S(=O)(=O)Nc2ccccc2Cl)c1`, for which the IC50 was > 80 µM (inactive).

As for `COc1ccccc1N1CSC2=C(C#N)C(c3ccc(SC)cc3)CC(=O)N2C1` (configuration not stated), the IC50 was 62.6 µM.

For `COc1cc(/C=N/Nc2nncn2N)ccc1OCc1c(C)no[n+]1[O-]`, the IC50 is > 80 µM (inactive).

In the case of `COc1cc(C(=O)O/N=C2\C=CC(=O)C=C2C)cc(OC)c1OC`, the IC50 is > 80 µM (inactive).

`COCc1cc(=O)n2[nH]c(C(C)(C)C)cc2n1`: the IC50 was 43.2 µM.

Regarding `O=C(Nc1nnc(S(=O)(=O)N2CCCC2)s1)c1cccc([N+](=O)[O-])c1`, the IC50 was > 80 µM (inactive).

For `Fc1cccc(Cl)c1CNc1ccc(N2CCCC2)cc1`, the IC50 was > 80 µM (inactive).

In the case of `Cc1cc(C)c2sc(NC(=O)C3=COCCO3)nc2c1`, the IC50 was 30.2 µM.

With `Cn1sc2ccccc2c1=O`, the IC50 was 39.5 µM.

For the molecule `O=C(COc1ccccc1F)OCC(=O)c1ccc([N+](=O)[O-])cc1`, the IC50 was > 80 µM (inactive).

Consider `Cc1ccc(S(=O)(=O)SC/C=C/CSS(=O)(=O)c2ccc(C)cc2)cc1`, for which the IC50 was 73 µM.

`O=C(CN1C(=O)C2C3C=CC(C3)C2C1=O)OCC(=O)c1ccc([N+](=O)[O-])cc1` (configuration not stated): the IC50 is > 80 µM (inactive).

For the molecule `O=c1ccsn1Cc1ccccc1`, the IC50 was 57.9 µM.

With `Cc1ccc(/C=C2\C(=O)NC(=S)N(c3ccccc3F)C2=O)s1`, the IC50 is > 80 µM (inactive).

Turning to `CCc1c(C(=O)Nc2ccccc2)c(C)[nH]c(=S)c1C#N`, the IC50 is > 80 µM (inactive).

As to `O=C(Cn1sc2ccccc2c1=O)NC12CC3CC(CC(C3)C1)C2`, the IC50 is 13.5 µM.

For `COc1cccc(CNc2ccc3[nH]c(=O)[nH]c3c2)c1OCc1ccccc1Cl`, the IC50 was > 80 µM (inactive).

As to `COc1ccc(NC2CCCN(Cc3cccc4cnccc34)C2)cc1OC` (configuration not stated), the IC50 was > 80 µM (inactive).

On to `COc1cc(NC(C)CCc2ccccc2)cc(OC)c1OC` (configuration not stated), for which the IC50 was > 80 µM (inactive).

As for `O=C1Nc2ccccc2C(=O)C1(Cl)Cc1ccccc1` (configuration not stated), the IC50 was > 80 µM (inactive).

Regarding `O=c1c2ccccc2sn1-c1ccc(S(=O)(=O)N2CCCCC2)cc1`, the IC50 is > 80 µM (inactive).

Consider `C[n+]1c(-c2ccccc2)cc2c(=Cc3ccc([N+](=O)[O-])cc3)c3ccccc3n21`, for which the IC50 is 51.5 µM.

Take `c1cc(CNc2ccc3c(c2)OCO3)ccn1`: the IC50 is > 80 µM (inactive).

For the molecule `Cc1[nH]c2ccccc2c1/C=N/Nc1nncn1N`, the IC50 is > 80 µM (inactive).

Take `[O-]/[N+](=C/c1cccnc1)c1ccc(Br)cc1`: the IC50 was 77.1 µM.

Take `COc1ccc(C(=O)Nc2nnc(S(=O)(=O)N3CCOCC3)s2)cc1`: the IC50 is 32.8 µM.

For the molecule `COc1ccc(N2CSC3=C(C#N)C(c4ccc(OC)c(OC)c4)CC(=O)N3C2)c(OC)c1` (configuration not stated), the IC50 is > 80 µM (inactive).

`Cc1cc(N=NC(=O)c2ccccc2O)c2ccccc2c1O`: the IC50 is > 80 µM (inactive).

As for `CCC(C)N(CCNC(=O)c1ccc2c(c1)NC(=O)c1ccccc1S2)C1CCCCC1` (configuration not stated), the IC50 was 6.35 µM.

With `COc1ccc(NS(=O)(=O)c2ccc(N3CCCC3)c(NC(=S)Nc3cccc(C)c3C)c2)cc1`, the IC50 is > 80 µM (inactive).

In the case of `CCc1cc(-c2n[nH]c(C)c2-c2ccccc2Cl)c(O)cc1OC`, the IC50 is > 80 µM (inactive).

With `Oc1ccc(NCc2ccccc2OCc2ccccc2)cc1`, the IC50 was 53.9 µM.

As to `CCN1CCN(C(=S)c2ccc(O)cc2)CC1`, the IC50 is > 80 µM (inactive).

With `COc1cccc(C=Nc2cc(C(C)C)c(O)cc2C)c1O`, the IC50 is > 80 µM (inactive).

For `CC1(C)CN(c2ccccc2)N(C(=O)c2ccc(C#N)cc2)C1=O`, the IC50 is > 80 µM (inactive).

With `CC(SCC(=O)Nc1ccccc1)c1nc2ccccc2c(=O)[nH]1` (configuration not stated), the IC50 was > 80 µM (inactive).
